Experimental data from US12390455B2, “EZH1/2 dual inhibitor-containing pharmaceutical composition to be used as a combination drug” (DAIICHI SANKYO COMPANY, LIMITED, priority 2018, dated 2025).

Tests used:
Assay in all cases: Cell growth inhibitory activity, Compound A alone and combined with a second medical agent (CellTiter-Glo)
MOLM14 = format: cell-based; conditions: MOLM14, AML, MLL-AF9, FLT3-ITD; 7 days culture then 3 days in assay plate
Description: (§1) Cell strains listed in Table 1 and Table 2 were seeded in cell culture plates (for example, 6-well culture plates). DMSO solutions of Compound A diluted to different concentrations or DMSO alone were added such that the concentration of the solvent was 0.1%. The cells were cultured for 7 days. During the culturing, at intervals of about 3 days or 4 days depending on cell proliferation, subculturing was appropriately carried out. In the subculturing, DMSO solutions of Compound A diluted to different concentrations or DMSO alone were added to fresh medium at the same concentration as in initiation of the study.
(§2) The cell strains cultured in the above conditions were seeded in 96-well assay plates and the cells were cultured under a combination of the following conditions: • (i) DMSO solutions of Compound A diluted to different concentrations or DMSO alone were added such that the concentration of the solvent was 0.1%, and • (ii) DMSO solutions of a second medical agent or DMSO alone (if a preparation of a second medical agent was used, the preparation of the second medical agent was diluted with saline and used, or saline alone was used) was added such that the concentration of the solvent was 0.1%.
(§3) During the culturing period, the culture conditions were 37° C. and 5% CO2. On the day when the cells were seeded in a 96-well assay plate (day of seeding) and 3 days later (day of evaluation), a reaction was carried out using CellTiter-Glo 2.0 Assay reagent (Promega KK., #G9241) in accordance with the manual attached thereto. Thereafter, the amount of light emitted from each of the wells was measured by a plate reader (EnVision, PerkinElmer Co., Ltd.). Based on the luminescence of the sample addition group (TS) and the DMSO addition group (CS) for each treatment condition measured on the day of seeding; and the luminescence of the sample addition group (T) and the DMSO addition group (C) for each treatment condition measured on the day of evaluation, the cell growth inhibition rate was calculated in accordance with the following expression: Cell growth inhibition rate %={1−(T−TS)/(C−CS)}×100
(§4) Note that, if the number of cells of a sample addition group on the day of evaluation was lower than that of the day of seeding (T<TS), the cell-killing effect was calculated in accordance with the following expression: Cell-killing rate %=(T−TS)/TS×(−100)
(§5) The cell growth inhibition rate and cell killing rate obtained by calculation were fitted to the Sigmoid Emax model to calculate 100% cell growth inhibitory concentration of each of Compound A alone, a second medical agent alone, and Compound A-second medical agent combinations at different concentrations.
(§6) Based on the 100% cell growth inhibitory concentrations (Compound A alone: D1, second medical agent alone: D2, Compound A when used in combination: d1, second medical agent when used in combination: d2) calculated, the combination index (CI) was calculated in accordance with the following expression: CI=d1/D1+d2/D2 Determination was based on the criteria: if CI<1, a synergetic effect is present; if CI=1, an additive effect is present; and if CI>1, an antagonist effect is present (refer to Adv. Enzyme Regul. 1984, p. 2227-55).

OCI-LY7 = format: cell-based; conditions: OCI-LY7, DLBCL (GCB), EZH2 WT; 7 days culture then 3 days in assay plate
Description: as §1, §2, §3, §4, §5, §6

DB = format: cell-based; conditions: DLBCL (GCB), EZH2 MT (Y641N), 7 days culture then 3 days in assay plate
Description: as §1, §2, §3, §4, §5, §6

DOHH-2 = format: cell-based; conditions: DOHH-2, DLBCL (GCB), EZH2 WT; 7 days culture then 3 days in assay plate
Description: as §1, §2, §3, §4, §5, §6

JeKo-1 = format: cell-based; conditions: JeKo-1, MCL, EZH2 WT; 7 days culture then 3 days in assay plate
Description: as §1, §2, §3, §4, §5, §6

GRANTA-519 = format: cell-based; conditions: GRANTA-519, MCL, EZH2 WT; 7 days culture then 3 days in assay plate
Description: as §1, §2, §3, §4, §5, §6

OCI-AML2 = format: cell-based; conditions: OCI-AML2, AML, MLL-AF6, DNMT3Amt, FLT3-ITD; 7 days culture then 3 days in assay plate
Description: as §1, §2, §3, §4, §5, §6

MOLM13 = format: cell-based; conditions: MOLM13, AML, MLL-AF9, FLT3-ITD; 7 days culture then 3 days in assay plate
Description: as §1, §2, §3, §4, §5, §6

OCI-LY19 = format: cell-based; conditions: OCI-LY19, DLBCL (GCB), EZH2 WT; 7 days culture then 3 days in assay plate
Description: as §1, §2, §3, §4, §5, §6

OCI-LY3 = format: cell-based; conditions: OCI-LY3, DLBCL (non-GCB), EZH2 WT; 7 days culture then 3 days in assay plate
Description: as §1, §2, §3, §4, §5, §6

SU-DHL-2 = format: cell-based; conditions: SU-DHL-2, DLBCL (non-GCB), EZH2 WT; 7 days culture then 3 days in assay plate
Description: as §1, §2, §3, §4, §5, §6

OCI-AML5 = format: cell-based; conditions: OCI-AML5, AML; 7 days culture then 3 days in assay plate
Description: as §1, §2, §3, §4, §5, §6

REC-1 = format: cell-based; conditions: REC-1, MCL, EZH2 WT; 7 days culture then 3 days in assay plate
Description: as §1, §2, §3, §4, §5, §6

OCI-AML3 = format: cell-based; conditions: OCI-AML3, AML, NPM1mt, DNMT3Amt; 7 days culture then 3 days in assay plate
Description: as §1, §2, §3, §4, §5, §6

MV-4-11 = format: cell-based, human; conditions: MV-4-11, AML, MLL-AF4, FLT3-ITD; 7 days culture then 3 days in assay plate
Description: as §1, with “study. […]” for “study.”
as §3, with “On the day when the cells were seeded in a 96-well assay plate (day of seeding) and 3 days later (day of evaluation), a reaction was carried out using CellTiter-Glo 2.0 Assay reagent (Promega KK., #G9241) in accordance with the manual attached thereto.” left out, “%={1−(T−TS)/(C−CS)}×100 […]” for “%={1−(T−TS)/(C−CS)}×100”

KARPAS-422 = format: cell-based, human; conditions: KARPAS-422, DLBCL (GCB), EZH2 MT (Y641N); 7 days culture then 3 days in assay plate
Description: as §1, with “study. […]” for “study.”
as §3, with “On the day when the cells were seeded in a 96-well assay plate (day of seeding) and 3 days later (day of evaluation), a reaction was carried out using CellTiter-Glo 2.0 Assay reagent (Promega KK., #G9241) in accordance with the manual attached thereto.” left out, “%={1−(T−TS)/(C−CS)}×100 […]” for “%={1−(T−TS)/(C−CS)}×100”

Cc1cc(C)c(CNC(=O)c2cc(Cl)c3c(c2C)O[C@@](C)([C@H]2CC[C@H](N(C)C)CC2)O3)c(=O)[nH]1 [Compound A, (2R)-7-chloro-2-[trans-4-(dimethylamino)cyclohexyl]-N-[(4,6-dimethyl-2-oxo-1,2-dihydropyridin-3-yl)methyl]-2,4-dimethyl-1,3-benzodioxol-5-carboxamide p-toluenesulfonate]
Cpd A GI100 (100% cell growth inhibitory concentration) (MOLM14): >1000 nM
Cpd A GI100 (100% cell growth inhibitory concentration) (OCI-LY7): 90 nM
Cpd A GI100 (100% cell growth inhibitory concentration) (DB): >100 nM
Cpd A GI100 (100% cell growth inhibitory concentration) (DOHH-2): 17 nM
Cpd A GI100 (100% cell growth inhibitory concentration) (JeKo-1): 8.1 nM
Cpd A GI100 (100% cell growth inhibitory concentration) (GRANTA-519): 53 nM
Cpd A GI100 (100% cell growth inhibitory concentration) (OCI-AML2): 647 nM
Cpd A GI100 (100% cell growth inhibitory concentration) (MOLM13): 97 nM
Cpd A GI100 (100% cell growth inhibitory concentration) (OCI-LY19): >1000 nM
Cpd A GI100 (100% cell growth inhibitory concentration) (OCI-LY3): >1000 nM
Cpd A GI100 (100% cell growth inhibitory concentration) (SU-DHL-2): 4.9 nM
Cpd A GI100 (100% cell growth inhibitory concentration) (OCI-AML5): >5 µM
Cpd A GI100 (100% cell growth inhibitory concentration) (REC-1): 170 nM
Cpd A GI100 (100% cell growth inhibitory concentration) (OCI-AML3): >1000 nM
Cpd A GI100 (100% cell growth inhibitory concentration) (MV-4-11): >100 nM
Cpd A GI100 (100% cell growth inhibitory concentration) (KARPAS-422): 5.7 nM
